These are literature values, as cited in paper PMC6323428, “Elucidation of the Intestinal Absorption Mechanism of Loganin in the Human Intestinal Caco-2 Cell Model” (Evidence-based Complementary and Alternative Medicine : eCAM, 2018).

The structures appear in SMILES notation.

This series deals with human intestinal Caco-2 cells. Set-up: method as in PMID 27531366. Conditions: Caco-2 cells model, chiefly passive diffusion; cited from earlier work.

As to `COC(=O)C1=CO[C@@H](O[C@@H]2O[C@H](CO)[C@@H](O)[C@H](O)[C@H]2O)[C@@H]2C(CO)=CC[C@H]12` [geniposide], the “Intestinal permeability (in words)” value is “good”.
